{"source": "patent EP0233206B1", "about": "“SUGAR-[…] THEIR PHARMACEUTICAL USE” (priority 1985, dated 1987)", "key": {"[1]": {"system": "mäusepathogenen Influenza-Viren", "format": "in vivo, NMRI-Mäusen", "conditions": "20 NMRI mice, 500 µg each injected in 1 % Squalan-in-Wasser-Lösung, all saline controls died"}, "[2]": {"system": "immunkompetenten Zellen", "test": "Activity of immunocompetent cells of the treated animals", "format": "in vivo, NMRI-Mäusen", "conditions": "cells of the animals treated with 500 µg substance in 1 % Squalan-in-Wasser-Lösung"}}}
{"smiles": "COC(=O)CC[C@@H](NC(=O)CNC(=O)CO[C@@H]1[C@H]2OC(C)(C)O[C@H]2O[C@@H]1[C@H]1COC(C)(C)O1)C(=O)OC", "note": "[Beispiel 1, N-[ (1,2:5,6-Di-0-isopropyliden-α-D-glucofuranos-30-yl)-acetyl]-glycyl-D-glutaminsäure-dimethylester]", "values": [{"measurement": "überlebten (Tiere)", "setting": "[1]", "value": 80, "unit": "%"}, {"measurement": "Aktivität der immunkompetenten Zellen", "setting": "[2]", "value": "erhöhte Aktivität"}]}
